Measured values from ChEMBL document CHEMBL5233249, “Recent advancements in the development of heterocyclic anti-inflammatory agents” (Eur J Med Chem, 2020).

Tests used:
[1] = system: Mus musculus; assay: Anti-inflammatory activity against Carrageenan-induced paw edema in mouse model assessed as reduction in volume of edema at 100 mg/kg measured after 24 hrs relative to control; format: functional; parameters: scale not given: the % may be the effect or the level left
[2] = system: THP-1; assay: Anti-inflammatory activity in human THP-1 cells assessed as inhibition in IL-1beta release at 30 uM relative to control; format: functional; parameters: scale not given: the % may be the effect or the level left
[3] = system: Rattus norvegicus; assay: Anti-inflammatory activity against formalin-induced foot paw edema in PO dosed rat at 10 mg/kg assessed as inhibition of edema measured after 4 hr relative to control; format: functional
[4] = system: Rattus norvegicus; assay: Anti-inflammatory activity against Carrageenan-induced paw edema in PO dosed Wistar albino rat assessed as inhibition of edema measured after 3 hr relative to control; format: functional; parameters: scale not given: the % may be the effect or the level left
[5] = Anti-inflammatory activity assessed using bovine serum albumin/egg albumin proteins assessed as protein denaturation measured at 95 degC for 20 mins by measuring turbidity by UV-Vis spectrophotometer; format: functional
[6] = system: Erythrocyte; assay: Anti-inflammatory activity in human red blood cells assessed as stabilization of cell membrane; format: functional, cell-based
[7] = system: Rattus norvegicus; assay: Anti-inflammatory activity in Carrageenan-induced rat paw edema in Wistar rat assessed as reduction in inhibition of edema measured after 4 hrs relative to control; format: functional; parameters: scale not given: the % may be the effect or the level left
[8] = system: Rattus norvegicus; assay: Anti-inflammatory activity in Carrageenan-induced paw edema in PO dosed rat model at 30 mg/kg measured after 4 hrs relative to control; format: functional
[9] = system: Mus musculus; assay: Anti-inflammatory activity against Carrageenan-induced paw edema in mouse model assessed as reduction of edema at 50 mg/kg measured after 4 hrs relative to control; format: functional; parameters: scale not given: the % may be the effect or the level left
[10] = system: Rattus norvegicus; assay: Anti-inflammatory activity against Carrageenan-induced paw edema in PO dosed Wistar albino rat assessed as inhibition of edema measured after 1 hr relative to control; format: functional; parameters: scale not given: the % may be the effect or the level left
[11] = system: Rattus norvegicus; assay: Anti-inflammatory activity against Carrageenan-induced paw edema in PO dosed Wistar albino rat assessed as inhibition of edema measured after 2 hr relative to control; format: functional; parameters: scale not given: the % may be the effect or the level left
[12] = system: Rattus norvegicus; assay: Anti-inflammatory activity against Carrageenan-induced paw edema in PO dosed Wistar albino rat assessed as inhibition of edema measured after 4 hr relative to control; format: functional; parameters: scale not given: the % may be the effect or the level left
[13] = system: Rattus norvegicus; assay: Anti-ulcerative activity in aspirin induced Wistar rat ulcer model assessed as inhibition of ulcer index at 20 mg/kg,po; format: functional
[14] = system: Rattus norvegicus; assay: Anti-inflammatory activity in Carrageenan-induced paw edema in PO dosed Swiss albino rat model at 30 mg/kg assessed as inhibition in volume of edema measured after 1 hrs relative to control; format: functional
[15] = system: Rattus norvegicus; assay: Anti-inflammatory activity in Carrageenan-induced paw edema in Wistar albino rat assessed as inhibition of edema measured after 3 hrs relative to control; format: functional
[16] = system: Mus musculus; assay: Anti-inflammatory activity in Carrageenan-induced paw edema in PO dosed mouse at 100 mg/kg assessed as inhibition of edema measured after 3 hr relative to control; format: functional; parameters: scale not given: the % may be the effect or the level left
[17] = system: Rattus norvegicus; assay: Anti-inflammatory activity in Carageenan-induced foot paw edema in Swiss albino rat assessed as reduction in volume of paw edema measured after 1 hr relative to control; format: functional; parameters: scale not given: the % may be the effect or the level left
[18] = system: Rattus norvegicus; assay: Anti-inflammatory activity in Carageenan-induced foot paw edema in Swiss albino rat assessed as reduction in volume of paw edema measured after 2 hr relative to control; format: functional; parameters: scale not given: the % may be the effect or the level left
[19] = system: Rattus norvegicus; assay: Anti-inflammatory activity in Carageenan-induced foot paw edema in Swiss albino rat assessed as reduction in volume of paw edema measured after 4 hr relative to control; format: functional; parameters: scale not given: the % may be the effect or the level left
[20] = system: Rattus norvegicus; assay: Anti-inflammatory activity in Carageenan-induced foot paw edema in Swiss albino rat assessed as reduction in volume of paw edema measured after 6 hr relative to control; format: functional; parameters: scale not given: the % may be the effect or the level left
[21] = system: Rattus norvegicus; assay: Anti-inflammatory activity in Carageenan-induced paw edema Wistar rat model assessed as reduction in paw edema volume relative to control; format: functional; parameters: scale not given: the % may be the effect or the level left
[22] = system: Rattus norvegicus; assay: Anti-inflammatory activity in Carrageenan-induced paw edema in Wistar albino rat assessed as reduction in paw edema measured after 1 hr relative to control; format: functional; parameters: scale not given: the % may be the effect or the level left
[23] = system: Rattus norvegicus; assay: Anti-inflammatory activity in Carrageenan-induced paw edema in Wistar albino rat assessed as reduction in paw edema measured after 2 hr relative to control; format: functional; parameters: scale not given: the % may be the effect or the level left
[24] = system: Rattus norvegicus; assay: Anti-inflammatory activity in Carrageenan-induced paw edema in Wistar albino rat assessed as reduction in paw edema measured after 3 hr relative to control; format: functional; parameters: scale not given: the % may be the effect or the level left
[25] = system: Rattus norvegicus; assay: Anti-inflammatory activity against Carrageenan-induced paw edema in Wistar albino rat ulcerogenic activity assessed as reduction in severity index; format: functional

`c1ccc(N2CCN(c3cncc(-c4nc5ccccc5[nH]4)n3)CC2)cc1` gave an Activity [1] of 54.31%.
For `c1cc2[nH]c(-c3cscn3)nc2cn1`, the Activity [2] was 40%.
Compound `O=C([O-])Cc1ccccc1Nc1c(Cl)cccc1Cl.[Na+]` [DICLOFENAC SODIUM] has an inhibition in vivo at 10 mg/kg [3] of 92.9%, an Activity [4] of 60.82% and an IC50 [5] of 54.65 µg/mL. For the same compound, the EC50 [6] was 11.7 µg/mL, the Activity [7] was 78.05% and the inhibition in vivo at 30 mg/kg [8] was 93%. For the same compound, the Activity [9] was 76.25%.
Work on `COc1ccc2c(c1)c(CC(=O)O)c(C)n2C(=O)c1ccc(Cl)cc1` [INDOMETHACIN] yielded an Activity [10] of 40%, an Activity [11] of 28.89% and an Activity [12] of 30.95%. For the same compound, the UI [13] was 20.2, the inhibition in vivo at 30 mg/kg [14] was 71.2% and the “inhibition (INH)” value [15] was 86.7%. For the same compound, the Activity [16] was 47.76%, the Activity [17] was 43.3% and the Activity [18] was 56.8%. The Activity [19] was 74.56%, the Activity [20] was 85.9% and the Activity [21] was 79.41%. It also gave an Activity [22] of 33.15%, an Activity [23] of 50.81% and an Activity [24] of 57.79%. It also gave an Activity [25] of 1.96 mm.
